According to PubChem BioAssay AID330 (DTP/NCI, 2004):
“And” between values parts separate entries of the source, which are not always exact repeats. Equal entries are not always repeated. Inconclusive results and toxic doses are left out.

Tested on: P388 leukemia ip, CD2F1 mice, survival T/C
Experiment: NCI In Vivo Anticancer Drug Screen. Data for tumor model P388 Leukemia (intraperitoneal) in CD2F1 (CDF1) mice
Details: endpoint: median survival time, higher = longer survival
Procedure, shortened: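 Mice carrying the transplanted tumor received test compound or vehicle. Survival was recorded in each group, and the value is the treated-group measurement divided by that of the vehicle-treated control group.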

[1] = dose: 50.0 mg/kg/injection, schedule: Q01DX009 (ip), vehicle: saline
[2] = dose: 100.0 mg/kg/injection, schedule: Q01DX009 (ip), vehicle: saline
[3] = dose: 200.0 mg/kg/injection, schedule: Q01DX009 (ip), vehicle: saline
[4] = dose: 50.0 mg/kg/injection, schedule: Q01DX005 (ip), vehicle: saline with Tween-80
[5] = dose: 100.0 mg/kg/injection, schedule: Q01DX005 (ip), vehicle: saline with Tween-80
[6] = dose: 200.0 mg/kg/injection, schedule: Q01DX005 (ip), vehicle: saline with Tween-80
[7] = dose: 60.0 mg/kg/injection, schedule: Q01DX005 (ip), vehicle: Klucel (hydroxypropylcellulose) (HPC)
[8] = dose: 120.0 mg/kg/injection, schedule: Q01DX005 (ip), vehicle: Klucel (hydroxypropylcellulose) (HPC)
[9] = dose: 240.0 mg/kg/injection, schedule: Q01DX005 (ip), vehicle: Klucel (hydroxypropylcellulose) (HPC)
[10] = dose: 50.0 mg/kg/injection, schedule: Q01DX009 (ip), vehicle: saline with Tween-80
[11] = dose: 25.0 mg/kg/injection, schedule: Q01DX009 (ip), vehicle: Klucel (hydroxypropylcellulose) (HPC)
[12] = dose: 50.0 mg/kg/injection, schedule: Q01DX009 (ip), vehicle: Klucel (hydroxypropylcellulose) (HPC)
[13] = dose: 100.0 mg/kg/injection, schedule: Q01DX009 (ip), vehicle: Klucel (hydroxypropylcellulose) (HPC)
[14] = dose: 200.0 mg/kg/injection, schedule: Q01DX009 (ip), vehicle: Klucel (hydroxypropylcellulose) (HPC)

COc1cc(CCNC(=O)CCN2C(=O)CCC2=O)cc(OC)c1OC
T/C [1]: 104 % of control | T/C [2]: 100 % of control | T/C [3]: 103 % of control

NS(=O)(=O)c1ccc(N=CC2C(=O)N(c3ccccc3)N(c3ccccc3)C2=O)cc1
T/C (dose: 100.0 mg/kg/injection, schedule: Q01DX001 (ip), vehicle: Klucel (hydroxypropylcellulose) (HPC)): 87 % of control | T/C (dose: 200.0 mg/kg/injection, schedule: Q01DX001 (ip), vehicle: Klucel (hydroxypropylcellulose) (HPC)): 89 % of control | T/C (dose: 400.0 mg/kg/injection, schedule: Q01DX001 (ip), vehicle: Klucel (hydroxypropylcellulose) (HPC)): 92 % of control

C/C(N=NC(=S)N1CC(C)OC(C)C1)=C1\C=CC=CN1O (stereo not given)
T/C [4]: 111 % of control | T/C [5]: 104 % of control | T/C [6]: 106 % of control

CN1C(Sc2ccccc2)=NN(c2ccccc2)CN1c1ccccc1
T/C (dose: 50.0 mg/kg/injection, schedule: Q04DX003 (ip), vehicle: saline with Tween-80): 93 % of control | T/C (dose: 100.0 mg/kg/injection, schedule: Q04DX003 (ip), vehicle: saline with Tween-80): 97 % of control | T/C (dose: 200.0 mg/kg/injection, schedule: Q04DX003 (ip), vehicle: saline with Tween-80): 88 % of control

CC(C)=NOC(=O)Nc1ccc(F)cc1
T/C [7]: 93 % of control | T/C [8]: 103 % of control | T/C [9]: 106 % of control

ClCc1cnc[nH]1
T/C [1]: 116 % of control | T/C [2]: 111 % of control

CC1(c2ccccn2)OCCO1
T/C [1]: 97 % of control | T/C [2]: 104 % of control | T/C [3]: 108 % of control

CC(=O)Sc1ccccc1C(=O)NCc1ccc(Cl)cc1
T/C [10]: 117 % of control | T/C (dose: 100.0 mg/kg/injection, schedule: Q01DX009 (ip), vehicle: saline with Tween-80): 104 % of control | T/C (dose: 200.0 mg/kg/injection, schedule: Q01DX009 (ip), vehicle: saline with Tween-80): 120 % of control

COc1cccc2sc(-c3ccccc3)cc(=O)c12
T/C (dose: 50.0 mg/kg/injection, schedule: Q01DX005 (ip), vehicle: Klucel (hydroxypropylcellulose) (HPC)): 93 % of control | T/C (dose: 100.0 mg/kg/injection, schedule: Q01DX005 (ip), vehicle: Klucel (hydroxypropylcellulose) (HPC)): 93 % of control | T/C (dose: 200.0 mg/kg/injection, schedule: Q01DX005 (ip), vehicle: Klucel (hydroxypropylcellulose) (HPC)): 96 % of control

COC1(OC)C(c2ccccc2)C(C#N)(S(=O)(=O)c2ccccc2)C1(OC)OC (stereo not given)
T/C [7]: 100 % of control | T/C [8]: 98 % of control | T/C [9]: 100 % of control

COC(=O)N1C(c2ccccc2)C=CC(c2ccccc2)N1C(=O)OC (stereo not given)
T/C [7]: 103 % of control | T/C [8]: 96 % of control | T/C [9]: 96 % of control

CCOc1cc(=O)cc2n(-c3cc(OCC)c(OC)c(OCC)c3)c3ccccc3nc1-2
T/C (dose: 50.0 mg/kg/injection, schedule: Q01DX009 (ip), vehicle: suspension in saline): 101 % of control | T/C (dose: 100.0 mg/kg/injection, schedule: Q01DX009 (ip), vehicle: suspension in saline): 101 % of control | T/C (dose: 200.0 mg/kg/injection, schedule: Q01DX009 (ip), vehicle: suspension in saline): 90 % of control

COc1ccc2c(oc(=O)c3c(Cl)nc(C)c(C)c32)c1OC
T/C (dose: 12.5 mg/kg/injection, schedule: Q01DX009 (ip), vehicle: Klucel (hydroxypropylcellulose) (HPC)): 98 % of control | T/C (dose: 12.5 mg/kg/injection, schedule: Q04DX003 (ip), vehicle: Klucel (hydroxypropylcellulose) (HPC)): 100 % of control | T/C [11]: 98 % of control | T/C (dose: 25.0 mg/kg/injection, schedule: Q04DX003 (ip), vehicle: Klucel (hydroxypropylcellulose) (HPC)): 102 % of control | T/C [12]: 98 % of control | T/C (dose: 50.0 mg/kg/injection, schedule: Q04DX003 (ip), vehicle: Klucel (hydroxypropylcellulose) (HPC)): 94 % of control | T/C [13]: 97 % of control | T/C (dose: 100.0 mg/kg/injection, schedule: Q04DX003 (ip), vehicle: Klucel (hydroxypropylcellulose) (HPC)): 90 % of control | T/C [14]: 97 % of control | T/C (dose: 200.0 mg/kg/injection, schedule: Q04DX003 (ip), vehicle: Klucel (hydroxypropylcellulose) (HPC)): 90 % of control

COc1ccc(-c2c(C#N)cnc(C)c2C)c(O)c1OC
T/C [11]: 96 % of control | T/C [12]: 92 % of control | T/C [13]: 96 % of control | T/C [14]: 90 % of control

CCO/C=C1\N=C(C(O)(c2ccc(Cl)cc2)c2ccc(Cl)cc2)OC1=O
T/C [7]: 95 % of control | T/C [8]: 92 % of control | T/C [9]: 98 % of control

CC(C)Cc1ncc(CC(C)C)n(O)c1=O
T/C (dose: 12.5 mg/kg/injection, schedule: Q01DX005 (ip), vehicle: distilled water + Tween-80): 95 % of control | T/C (dose: 25.0 mg/kg/injection, schedule: Q01DX005 (ip), vehicle: distilled water + Tween-80): 103 % of control | T/C (dose: 50.0 mg/kg/injection, schedule: Q01DX005 (ip), vehicle: distilled water + Tween-80): 101 % of control | T/C (dose: 100.0 mg/kg/injection, schedule: Q01DX005 (ip), vehicle: distilled water + Tween-80): 100 % of control

NCc1ccccc1
T/C [1]: 103 % of control and 95 % of control | T/C [2]: 101 % of control and 109 % of control

O/N=C(/Cc1nc2cc(Cl)c(Cl)cc2nc1C/C(=N/O)c1cccc2ccccc12)c1cccc2ccccc12
T/C (dose: 60.0 mg/kg/injection, schedule: Q01DX005 (ip), vehicle: saline with Tween-80): 91 % of control | T/C (dose: 120.0 mg/kg/injection, schedule: Q01DX005 (ip), vehicle: saline with Tween-80): 99 % of control | T/C (dose: 240.0 mg/kg/injection, schedule: Q01DX005 (ip), vehicle: saline with Tween-80): 94 % of control

Cc1cccc(Cl)c1NC(=O)CN(C)CCN1CCCC1
T/C (dose: 60.0 mg/kg/injection, schedule: Q01DX005 (ip), vehicle: saline): 103 % of control | T/C (dose: 120.0 mg/kg/injection, schedule: Q01DX005 (ip), vehicle: saline): 110 % of control

CC(C)COC1CC(C)(C)c2c(-c3ccccc3)nn(-c3ccccc3)c2O1 (stereo not given)
T/C (dose: 12.5 mg/kg/injection, schedule: Q01DX009 (ip), vehicle: saline with Tween-80): 93 % of control | T/C (dose: 25.0 mg/kg/injection, schedule: Q01DX009 (ip), vehicle: saline with Tween-80): 93 % of control | T/C [10]: 88 % of control and 93 % of control

C=CCCCN1C(=O)CCC1=O
T/C (dose: 50.0 mg/kg/injection, schedule: Q01DX005 (ip), vehicle: saline): 105 % of control | T/C (dose: 100.0 mg/kg/injection, schedule: Q01DX005 (ip), vehicle: saline): 97 % of control | T/C (dose: 200.0 mg/kg/injection, schedule: Q01DX005 (ip), vehicle: saline): 100 % of control

C=C1SC(=Nc2cccc(OC)c2)N(c2nc(Cl)nc(Cl)n2)C1(C)C
T/C [1]: 99 % of control | T/C [2]: 102 % of control | T/C [3]: 98 % of control

Cc1ccc(N)c(C(=O)Nc2ccc(Br)cc2)c1
T/C [4]: 101 % of control | T/C [5]: 101 % of control | T/C [6]: 95 % of control

Clc1cc[c]([Sn]([Cl])([O][Sn]([Cl])([c]2ccc(Cl)cc2)[c]2ccc(Cl)cc2)[c]2ccc(Cl)cc2)cc1
T/C (dose: 3.12 mg/kg/injection, schedule: Q01DX005 (ip), vehicle: saline): 103 % of control | T/C (dose: 6.25 mg/kg/injection, schedule: Q01DX005 (ip), vehicle: saline): 108 % of control | T/C (dose: 12.5 mg/kg/injection, schedule: Q01DX005 (ip), vehicle: saline): 119 % of control | T/C (dose: 25.0 mg/kg/injection, schedule: Q01DX005 (ip), vehicle: saline): 162 % of control

Nc1nc(N)nc(CCC(Cl)(Cl)Cl)n1
T/C (dose: 12.5 mg/kg/injection, schedule: Q01DX009 (ip), vehicle: distilled water + Tween-80): 100 % of control | T/C (dose: 25.0 mg/kg/injection, schedule: Q01DX009 (ip), vehicle: distilled water + Tween-80): 100 % of control | T/C (dose: 50.0 mg/kg/injection, schedule: Q01DX009 (ip), vehicle: distilled water + Tween-80): 95 % of control | T/C (dose: 100.0 mg/kg/injection, schedule: Q01DX009 (ip), vehicle: distilled water + Tween-80): 95 % of control | T/C (dose: 200.0 mg/kg/injection, schedule: Q01DX009 (ip), vehicle: distilled water + Tween-80): 100 % of control

O=S1(=O)CCN(Cc2ccncc2)CC1
T/C [1]: 100 % of control | T/C [2]: 98 % of control | T/C [3]: 100 % of control

O=C1NN2CCCN=C2c2cccnc21
T/C (dose: 100.0 mg/kg/injection, schedule: Q04DX002 (ip), vehicle: saline with Tween-80): 101 % of control | T/C (dose: 200.0 mg/kg/injection, schedule: Q04DX002 (ip), vehicle: saline with Tween-80): 98 % of control | T/C (dose: 400.0 mg/kg/injection, schedule: Q04DX002 (ip), vehicle: saline with Tween-80): 101 % of control
